Measured values taken from ChEMBL document CHEMBL3588812, “Thiophene and benzodioxole appended thiazolyl-pyrazoline compounds: Microwave assisted synthesis, antimicrobial and molecular docking studies” (2015).
Calls of active or inactive are those of the source. No cut-off for these calls is given here.

Assays:
[1] = tested on: Klebsiella pneumoniae; test: Antimicrobial activity against Klebsiella pneumoniae MTCC 109 assessed as inhibition of visual microbial growth incubated for 24 hrs at 37 degC; type: functional; conditions: MTCC 109, 24 h
[2] = tested on: Klebsiella aerogenes; test: Antimicrobial activity against Enterobacter aerogenes MTCC 111 assessed as inhibition of visual microbial growth incubated for 24 hrs at 37 degC; type: functional
[3] = tested on: Shigella flexneri; test: Antimicrobial activity against Shigella flexneri MTCC 1457 assessed as inhibition of visual microbial growth incubated for 24 hrs at 37 degC; type: functional; conditions: MTCC 1457, 24 h
[4] = tested on: Salmonella typhimurium; test: Antimicrobial activity against Salmonella typhimurium MTCC 1251 assessed as inhibition of visual microbial growth incubated for 24 hrs at 37 degC; type: functional, Salmonella enterica subsp. enterica serovar Typhimurium; conditions: Salmonella enterica, MTCC 1251, 24 h
[5] = tested on: Proteus vulgaris; test: Antimicrobial activity against Proteus vulgaris MTCC 1771 assessed as inhibition of visual microbial growth incubated for 24 hrs at 37 degC; type: functional
[6] = tested on: Candida albicans; test: Antimicrobial activity against Candida albicans MTCC 227 assessed as inhibition of visual microbial growth incubated for 48 to 72 hrs at 28 degC; type: functional
[7] = tested on: Staphylococcus aureus; test: Antimicrobial activity against methicillin-resistant Staphylococcus aureus assessed as inhibition of visual microbial growth incubated for 24 hrs at 37 degC; type: functional
[8] = tested on: Micrococcus luteus; test: Antimicrobial activity against Micrococcus luteus MTCC 106 assessed as inhibition of visual microbial growth incubated for 24 hrs at 37 degC; type: functional; conditions: MTCC 106, 24 h
[9] = tested on: Staphylococcus aureus; test: Antimicrobial activity against Staphylococcus aureus MTCC 96 assessed as inhibition of visual microbial growth incubated for 24 hrs at 37 degC; type: functional; conditions: MTCC 96, 24 h
[10] = tested on: Malassezia pachydermatis; test: Antimicrobial activity against Malassezia pachydermatis assessed as inhibition of visual microbial growth incubated for 48 to 72 hrs at 28 degC; type: functional

Cc1ccc(-c2csc(N3N=C(c4cccs4)CC3c3cc4c(cc3Br)OCO4)n2)cc1 (centres undefined)
MIC [1]: 62.5 µg/mL
MIC ([2]; MTCC 111, 24 h): 125 µg/mL
MIC [3]: 125 µg/mL
MIC [4]: 62.5 µg/mL
MIC ([5]; MTCC 1771, 24 h): 125 µg/mL
MIC [6]: 125 µg/mL
MIC [7]: 250 µg/mL
MIC [8]: 62.5 µg/mL
MIC [9]: 62.5 µg/mL
MIC [10]: 250 µg/mL

GENTAMICIN
MIC [5]: 32 µg/mL

c1ccc(-c2csc(N3N=C(c4cccs4)CC3c3ccc4c(c3)OCO4)n2)cc1 (centres undefined)
MIC [1]: 500 µg/mL
MIC ([2]; MTCC 111, 24 h): 250 µg/mL
MIC [3]: 500 µg/mL
MIC [4]: 250 µg/mL
MIC ([5]; MTCC 1771, 24 h): 500 µg/mL
MIC [6]: 250 µg/mL
MIC [7]: 500 µg/mL
MIC [8]: 250 µg/mL
MIC [9]: 500 µg/mL
MIC [10]: 500 µg/mL

N#Cc1ccc(-c2csc(N3N=C(c4cccs4)CC3c3cc4c(cc3Br)OCO4)n2)cc1 (centres undefined)
MIC [1]: 125 µg/mL
MIC ([2]; MTCC 111, 24 h): 125 µg/mL
MIC [3]: 125 µg/mL
MIC [4]: 125 µg/mL
MIC ([5]; MTCC 1771, 24 h): 62.5 µg/mL
MIC [6]: 125 µg/mL
MIC [7]: 125 µg/mL
MIC [8]: 62.5 µg/mL
MIC [9]: 62.5 µg/mL
MIC [10]: 125 µg/mL

N#Cc1ccc(-c2csc(N3N=C(c4cccs4)CC3c3ccc4c(c3)OCO4)n2)cc1 (centres undefined)
MIC [1]: 250 µg/mL
MIC ([2]; MTCC 111, 24 h): 250 µg/mL
MIC [3]: 250 µg/mL
MIC [4]: 125 µg/mL
MIC ([5]; MTCC 1771, 24 h): 125 µg/mL
MIC [6]: 125 µg/mL
MIC [7]: 250 µg/mL
MIC [8]: 125 µg/mL
MIC [9]: 125 µg/mL
MIC [10]: 500 µg/mL

Clc1ccc(-c2csc(N3N=C(c4cccs4)CC3c3cc4c(cc3Br)OCO4)n2)cc1 (centres undefined)
MIC [1]: 31.2 µg/mL
MIC ([2]; MTCC 111, 24 h): 125 µg/mL
MIC [3]: 125 µg/mL
MIC [4]: 62.5 µg/mL
MIC ([5]; MTCC 1771, 24 h): 250 µg/mL
MIC [6]: 125 µg/mL
MIC [7]: 62.5 µg/mL
MIC [8]: 31.2 µg/mL
MIC [9]: 125 µg/mL
MIC [10]: 125 µg/mL

Clc1ccc(-c2csc(N3N=C(c4cccs4)CC3c3ccc4c(c3)OCO4)n2)cc1 (centres undefined)
MIC [1]: 62.5 µg/mL
MIC ([2]; MTCC 111, 24 h): 250 µg/mL
MIC [3]: 250 µg/mL
MIC [4]: 250 µg/mL
MIC ([5]; MTCC 1771, 24 h): 125 µg/mL
MIC [6]: 500 µg/mL
MIC [7]: 250 µg/mL
MIC [8]: 250 µg/mL
MIC [9]: 125 µg/mL
MIC [10]: 500 µg/mL

Fc1cc(Cl)ccc1-c1csc(N2N=C(c3cccs3)CC2c2ccc3c(c2)OCO3)n1 (centres undefined)
MIC [1]: 125 µg/mL
MIC ([2]; MTCC 111, 24 h): 250 µg/mL
MIC [3]: 125 µg/mL
MIC [4]: 125 µg/mL
MIC ([5]; MTCC 1771, 24 h): 500 µg/mL
MIC [6]: 250 µg/mL
MIC [7]: 125 µg/mL
MIC [8]: 250 µg/mL
MIC [9]: 250 µg/mL
MIC [10]: 250 µg/mL

Cc1ccc(-c2csc(N3N=C(c4cccs4)CC3c3ccc4c(c3)OCO4)n2)cc1 (centres undefined)
MIC [1]: 125 µg/mL
MIC [2]: inactive
MIC [3]: 250 µg/mL
MIC [4]: 125 µg/mL
MIC ([5]; MTCC 1771, 24 h): 500 µg/mL
MIC [6]: 125 µg/mL
MIC [7]: 250 µg/mL
MIC [8]: 500 µg/mL
MIC [9]: 250 µg/mL
MIC [10]: 500 µg/mL

CN[C@@H]1[C@H](O[C@H]2[C@H](O[C@H]3[C@H](O)[C@@H](O)[C@H](N=C(N)N)[C@@H](O)[C@@H]3N=C(N)N)O[C@@H](C)[C@]2(O)C=O)O[C@@H](CO)[C@H](O)[C@H]1O [STREPTOMYCIN]
MIC [1]: 6.25 µg/mL
MIC ([2]; MTCC 111, 24 h): 25 µg/mL
MIC [3]: 6.25 µg/mL
MIC [4]: 30 µg/mL
MIC [7]: 6.25 µg/mL
MIC [8]: 6.25 µg/mL
MIC [9]: 6.25 µg/mL

OC(Cn1cncn1)(Cn1cncn1)c1ccc(F)cc1F [FLUCONAZOLE]
MIC [10]: 24 µg/mL

O=[N+]([O-])c1ccc(-c2csc(N3N=C(c4cccs4)CC3c3cc4c(cc3Br)OCO4)n2)cc1 (centres undefined)
MIC [1]: 250 µg/mL
MIC ([2]; MTCC 111, 24 h): 250 µg/mL
MIC [3]: 250 µg/mL
MIC [4]: 62.5 µg/mL
MIC ([5]; MTCC 1771, 24 h): 125 µg/mL
MIC [6]: 125 µg/mL
MIC [7]: 62.5 µg/mL
MIC [8]: 125 µg/mL
MIC [9]: 250 µg/mL
MIC [10]: 500 µg/mL
